Test results published in ChEMBL document CHEMBL1201862, “PubChem BioAssay data set” (2004).
Blank lines part the entries; values can stand above or below the compound they belong to. Activity calls are given as the source filed them.

Legend:
[1] = target: G-protein coupled receptor 55 (Homo sapiens, UniProt Q9Y2T6); test: GPR55 antagonists, SAR follow-up, counter-screen for GPR35 antagonist project, imaging, image-based (AID 2397); format: functional
[2] = system: HEK293; test: SAR analysis of compounds that are cytotoxic to HEK293 - Set 3. [Related pubchem assays (depositor defined):AID1575, AID1578, AID1848, AID1849, AID2001, AID2333, AID2334, AID2335, AID2337, AID2469]; format: functional, cell-based; conditions: Homo sapiens
[3] = target: T1, Nucleotide-binding oligomerization domain-containing protein 1 (Homo sapiens, UniProt Q9Y239); test: SAR analysis of NF-kappaB dependent luciferase using DAP as an inducer - Set 2. [Related pubchem assays (depositor defined):AID1566, AID1575, AID1578, AID1579, AID1849, AID1852, AID2264]; format: functional
T1 sequence (Q9Y239 whole entry): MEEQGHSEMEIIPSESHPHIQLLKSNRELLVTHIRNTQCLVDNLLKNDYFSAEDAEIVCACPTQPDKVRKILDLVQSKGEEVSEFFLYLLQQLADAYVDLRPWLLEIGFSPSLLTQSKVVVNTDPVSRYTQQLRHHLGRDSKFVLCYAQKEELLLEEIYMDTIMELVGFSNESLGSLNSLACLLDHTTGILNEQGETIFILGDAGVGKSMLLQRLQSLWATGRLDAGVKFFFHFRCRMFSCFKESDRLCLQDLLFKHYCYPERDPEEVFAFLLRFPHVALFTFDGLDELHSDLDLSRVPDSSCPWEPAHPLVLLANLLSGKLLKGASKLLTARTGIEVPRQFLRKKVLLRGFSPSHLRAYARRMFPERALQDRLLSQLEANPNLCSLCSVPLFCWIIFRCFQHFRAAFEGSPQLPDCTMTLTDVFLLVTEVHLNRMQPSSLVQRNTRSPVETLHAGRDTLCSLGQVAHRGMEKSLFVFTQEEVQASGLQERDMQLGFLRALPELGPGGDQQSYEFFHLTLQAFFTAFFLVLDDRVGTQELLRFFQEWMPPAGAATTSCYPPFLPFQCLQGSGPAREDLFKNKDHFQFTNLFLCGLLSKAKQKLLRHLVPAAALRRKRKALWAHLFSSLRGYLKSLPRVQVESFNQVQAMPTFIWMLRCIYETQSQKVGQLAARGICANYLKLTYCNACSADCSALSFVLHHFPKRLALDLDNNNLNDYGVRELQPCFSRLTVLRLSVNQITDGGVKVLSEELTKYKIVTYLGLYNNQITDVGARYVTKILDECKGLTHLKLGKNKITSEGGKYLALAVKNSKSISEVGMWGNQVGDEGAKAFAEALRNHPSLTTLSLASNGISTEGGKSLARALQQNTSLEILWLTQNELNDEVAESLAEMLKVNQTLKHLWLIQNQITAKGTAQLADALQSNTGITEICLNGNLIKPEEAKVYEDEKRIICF

[4] = control 3'UTR Renilla luciferase suppression, dose response, counter-screen for Shn3 inhibitor project, cell-based, Clone20-Shn3RL, cherry-picked (AID 624133); format: functional
[5] = HepG2 cell cytotoxicity, dose response, cytotoxicity control for Shn3 inhibitor project, CellTiter-Glo, cherry-picked (AID 624134); format: functional, cell-based
[6] = target: T2, Interleukin-8 (Homo sapiens, UniProt P10145); test: SAR analysis of GM-Tri-DAP induced IL-8 secretion in MCF-7/NOD1 cells - Set 2. [Related pubchem assays (depositor defined):AID1575, AID1578, AID2333]; format: functional, cell-based
T2 sequence (P10145 whole entry): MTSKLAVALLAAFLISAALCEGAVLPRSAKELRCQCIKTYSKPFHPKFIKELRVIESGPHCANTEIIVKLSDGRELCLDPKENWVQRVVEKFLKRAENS

[7] = target: T1, Nucleotide-binding oligomerization domain-containing protein 1; test: SAR analysis of compounds that inhibit NOD1 - Set 2. [Related pubchem assays (depositor defined):AID1566, AID1575, AID1578, AID1849, AID1852, AID2333, AID2335, AID2798]; format: functional
[8] = target: T2, Interleukin-8; test: SAR analysis of Tumor necrosis factor alpha (TNF-alpha) induced IL-8 secretion in MCF-7/NOD1 cells - Set 2. [Related pubchem assays (depositor defined):AID1575, AID2250, AID2260]; format: functional, cell-based
[9] = target: T1, Nucleotide-binding oligomerization domain-containing protein 1; test: SAR analysis of compounds that inhibit NOD1 - Set 3. [Related pubchem assays (depositor defined):AID1566, AID1575, AID1578, AID1849, AID1852, AID2333, AID2335, AID2466]; format: functional
[10] = Shn3 3'UTR reporter inhibitors, dose response, cell-based, Clone20 osteoblasts, firefly luciferase, cherry-picked (AID 624132); format: functional;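 also: firefly luciferase luminescence from reporter carrying the Shn3 3'UTR in osteoblasts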
[11] = system: HEK293; test: SAR analysis of compounds that are cytotoxic to HEK293 - Set 2. [Related pubchem assays (depositor defined):AID1575, AID1578, AID1849, AID2001, AID2333, AID2334, AID2335, AID2337, AID2800]; format: functional, cell-based; conditions: Homo sapiens
[12] = target: T3, Nucleotide-binding oligomerization domain-containing protein 2 (Homo sapiens, UniProt Q9HC29); test: NOD2 signaling inhibitors, analog potency, SAR follow-up, cell-based, set 3 (AID 2799); format: functional
T3 sequence (Q9HC29 whole entry, the tested form may be a part): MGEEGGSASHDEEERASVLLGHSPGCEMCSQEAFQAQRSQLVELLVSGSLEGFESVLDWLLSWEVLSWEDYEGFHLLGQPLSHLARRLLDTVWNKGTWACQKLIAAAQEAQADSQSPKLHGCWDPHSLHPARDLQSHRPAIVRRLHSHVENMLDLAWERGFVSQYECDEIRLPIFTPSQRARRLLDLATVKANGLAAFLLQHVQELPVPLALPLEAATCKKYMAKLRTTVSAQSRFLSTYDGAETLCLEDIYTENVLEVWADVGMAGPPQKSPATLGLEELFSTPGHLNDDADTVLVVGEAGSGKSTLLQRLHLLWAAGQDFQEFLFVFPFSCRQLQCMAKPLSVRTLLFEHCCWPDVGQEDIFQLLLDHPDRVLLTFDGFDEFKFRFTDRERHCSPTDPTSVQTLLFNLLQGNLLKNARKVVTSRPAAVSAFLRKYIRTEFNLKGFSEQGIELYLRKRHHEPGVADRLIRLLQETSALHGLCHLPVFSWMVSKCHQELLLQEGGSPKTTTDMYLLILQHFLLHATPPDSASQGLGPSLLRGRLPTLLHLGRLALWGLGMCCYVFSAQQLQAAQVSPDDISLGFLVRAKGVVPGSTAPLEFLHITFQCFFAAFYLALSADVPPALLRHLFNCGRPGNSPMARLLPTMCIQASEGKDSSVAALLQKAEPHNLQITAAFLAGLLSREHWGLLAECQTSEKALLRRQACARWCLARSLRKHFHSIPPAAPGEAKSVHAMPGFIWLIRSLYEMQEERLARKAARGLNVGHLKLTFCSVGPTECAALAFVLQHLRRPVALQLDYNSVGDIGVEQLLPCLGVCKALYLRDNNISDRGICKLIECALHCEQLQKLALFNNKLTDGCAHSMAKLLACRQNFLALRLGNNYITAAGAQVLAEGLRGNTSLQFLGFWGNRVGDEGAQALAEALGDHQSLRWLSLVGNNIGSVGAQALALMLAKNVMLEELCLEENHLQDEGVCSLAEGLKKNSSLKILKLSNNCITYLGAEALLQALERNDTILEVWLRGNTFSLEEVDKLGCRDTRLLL

[13] = target: T3, Nucleotide-binding oligomerization domain-containing protein 2; test: NOD2 inhibitors, SAR follow-up, set 2 (AID 2475); format: functional
[14] = target: Tumor necrosis factor (Homo sapiens, UniProt P01375); test: TNFa-triggered NF-kB activation inhibitors, SAR follow-up, cell-based, set 3 (AID 2801); format: functional
Sequence of Tumor necrosis factor (P01375 whole entry): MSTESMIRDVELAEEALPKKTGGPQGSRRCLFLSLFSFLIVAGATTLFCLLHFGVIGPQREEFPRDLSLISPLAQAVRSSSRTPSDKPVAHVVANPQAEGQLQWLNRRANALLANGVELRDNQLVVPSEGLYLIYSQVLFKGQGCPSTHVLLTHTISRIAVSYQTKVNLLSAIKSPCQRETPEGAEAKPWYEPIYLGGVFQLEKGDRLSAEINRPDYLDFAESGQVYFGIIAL

[15] = target: Dual specificity protein phosphatase 6 (Rattus norvegicus, UniProt Q64346); format: functional;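 also: confirmatory in vitro dose-response testing of MKP-3 inhibition; recombinant His-tagged MKP-3 made in E. coli BL21 with OMFP substrate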
Sequence of Dual specificity protein phosphatase 6 (Q64346 whole entry): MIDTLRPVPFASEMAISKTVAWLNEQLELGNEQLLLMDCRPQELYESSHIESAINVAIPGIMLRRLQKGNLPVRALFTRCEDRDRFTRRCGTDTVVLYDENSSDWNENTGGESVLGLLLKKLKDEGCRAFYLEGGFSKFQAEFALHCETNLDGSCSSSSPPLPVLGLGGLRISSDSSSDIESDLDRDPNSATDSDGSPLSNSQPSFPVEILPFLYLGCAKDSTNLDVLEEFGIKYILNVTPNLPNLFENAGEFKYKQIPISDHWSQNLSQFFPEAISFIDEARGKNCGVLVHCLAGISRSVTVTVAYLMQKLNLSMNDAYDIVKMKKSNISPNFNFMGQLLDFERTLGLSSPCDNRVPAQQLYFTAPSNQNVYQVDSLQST

[16] = target: T4, Tyrosine-protein phosphatase non-receptor type 7 (Homo sapiens, UniProt P35236); test: redox-dependent HePTP inhibition, mechanism study, biochemical, fluorescence (AID 2068); format: functional
T4 sequence (P35236 whole entry): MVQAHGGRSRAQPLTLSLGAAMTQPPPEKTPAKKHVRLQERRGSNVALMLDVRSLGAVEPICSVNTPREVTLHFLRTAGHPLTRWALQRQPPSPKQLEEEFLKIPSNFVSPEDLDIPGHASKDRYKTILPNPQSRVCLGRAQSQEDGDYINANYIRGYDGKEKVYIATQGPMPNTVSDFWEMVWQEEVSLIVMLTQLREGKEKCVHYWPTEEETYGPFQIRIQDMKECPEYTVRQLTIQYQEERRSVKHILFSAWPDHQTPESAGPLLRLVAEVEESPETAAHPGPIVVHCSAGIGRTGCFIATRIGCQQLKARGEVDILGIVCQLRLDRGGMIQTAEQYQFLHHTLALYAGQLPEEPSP

[17] = system: HEK293; test: cells; format: functional, cell-based; conditions: Homo sapiens
[18] = system: HEK293; test: NOD1 signaling inhibitors, primary screen, cell-based, luminescence, uHTS (AID 1578); format: functional; conditions: Homo sapiens
[19] = system: HEK293; test: NOD2 signaling inhibitors in MDP-stimulated cells, cell-based, uHTS, luminescence (AID 2001); format: functional; conditions: Homo sapiens
[20] = system: INS1; test: beta cell apoptosis inhibitors, cytokine rescue, dose response, luminescence, retest (AID 449756); format: functional, cell-based; conditions: Rattus norvegicus;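 also: cell death triggered by IL-1 beta plus TNF-alpha plus IFN-gamma mixture; protective hits raise ATP signal compared with cytokine alone wells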
[21] = cytotoxicity toward NIH3T3 fibroblasts, dose response, counter-screen, cell-based, ATP luminescence, mouse fibroblasts (AID 2010); format: functional;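 also: cells exposed to compound for about 90 hours before reading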
[22] = inhibitors of intracellular T. cruzi replication, confirmation, NIH3T3 host cells, beta-gal luminescence (AID 2044); format: functional, cell-based;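 also: intracellular parasites grown in NIH/3T3 mouse fibroblasts as host cells; luminescent beta-galactosidase reporter signal from transgenic T. cruzi replicating inside host cells; inhibitors lower the luminescence signal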
[23] = cytotoxicity in MIN6 insulinoma cells, dose response, cytotoxicity control, cell-based, mouse insulinoma (AID 2122); format: functional;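 also: confirmatory high-throughput counterscreen run to flag cytotoxic compounds; mouse MIN-6 beta cells carrying an insulin promoter eGFP reporter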
[24] = system: HEK293; test: cells; format: functional, cell-based; conditions: Homo sapiens; remark: listed apart in the source
[25] = insulin promoter down-regulators in MIN6 cells, imaging, high-content screening, mouse beta cells (AID 1628); format: functional
[26] = target: SUMO E1/E2 (Homo sapiens, UniProt P63279+Q9UBE0+Q9UBT2); test: SAR analysis of SUMOylation using HTRF in an in-Vitro dose response assay. [Related pubchem assays (depositor defined):AID2006, AID2011, AID2018, AID2069, AID2658]; format: functional
Sequence of SUMO E1/E2 (Q9UBE0 whole entry): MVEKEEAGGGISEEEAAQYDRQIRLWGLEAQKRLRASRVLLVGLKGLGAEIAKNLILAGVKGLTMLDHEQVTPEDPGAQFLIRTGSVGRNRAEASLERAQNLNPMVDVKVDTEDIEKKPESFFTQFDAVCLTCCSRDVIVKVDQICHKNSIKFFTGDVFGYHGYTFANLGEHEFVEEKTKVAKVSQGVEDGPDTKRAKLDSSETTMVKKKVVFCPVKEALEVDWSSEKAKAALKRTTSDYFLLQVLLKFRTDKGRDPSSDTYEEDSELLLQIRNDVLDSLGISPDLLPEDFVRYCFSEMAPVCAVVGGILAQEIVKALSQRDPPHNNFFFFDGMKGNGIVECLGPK
Sequence of SUMO E1/E2 (Q9UBT2 whole entry): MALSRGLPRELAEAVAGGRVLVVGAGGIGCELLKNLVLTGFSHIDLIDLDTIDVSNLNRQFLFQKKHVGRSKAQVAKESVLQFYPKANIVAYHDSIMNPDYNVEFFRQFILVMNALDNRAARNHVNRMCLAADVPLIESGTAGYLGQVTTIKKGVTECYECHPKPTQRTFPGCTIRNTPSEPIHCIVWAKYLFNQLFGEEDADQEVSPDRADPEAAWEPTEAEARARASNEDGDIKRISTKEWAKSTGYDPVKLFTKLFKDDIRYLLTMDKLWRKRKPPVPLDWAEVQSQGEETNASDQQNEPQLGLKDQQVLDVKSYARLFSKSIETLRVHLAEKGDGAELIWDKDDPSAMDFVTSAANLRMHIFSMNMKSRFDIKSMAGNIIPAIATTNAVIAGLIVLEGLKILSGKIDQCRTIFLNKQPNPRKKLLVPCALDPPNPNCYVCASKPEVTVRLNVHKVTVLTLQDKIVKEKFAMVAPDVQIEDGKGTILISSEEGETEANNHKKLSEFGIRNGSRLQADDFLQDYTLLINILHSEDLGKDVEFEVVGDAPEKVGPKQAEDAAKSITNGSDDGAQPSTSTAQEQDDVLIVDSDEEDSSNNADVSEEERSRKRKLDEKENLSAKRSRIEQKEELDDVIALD
Sequence of SUMO E1/E2 (P63279 whole entry): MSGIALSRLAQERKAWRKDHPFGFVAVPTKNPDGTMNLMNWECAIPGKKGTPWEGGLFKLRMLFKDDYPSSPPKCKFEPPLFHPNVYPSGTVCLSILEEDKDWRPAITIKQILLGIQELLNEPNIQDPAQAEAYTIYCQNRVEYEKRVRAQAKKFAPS

[27] = target: Sphingosine 1-phosphate receptor 2 (Homo sapiens, UniProt O95136); test: Late stage counterscreen assay for S1P4 antagonists: Fluorescence dose response cell-based screening assay for antagonists of the Sphingosine 1-Phosphate Receptor 2 (S1P2). [Related pubchem assays (depositor defined):AID1510, AID1524, AID1692, AID1853, AID2332, AID489009, AID489017]; format: functional
Sequence of Sphingosine 1-phosphate receptor 2 (O95136 whole entry): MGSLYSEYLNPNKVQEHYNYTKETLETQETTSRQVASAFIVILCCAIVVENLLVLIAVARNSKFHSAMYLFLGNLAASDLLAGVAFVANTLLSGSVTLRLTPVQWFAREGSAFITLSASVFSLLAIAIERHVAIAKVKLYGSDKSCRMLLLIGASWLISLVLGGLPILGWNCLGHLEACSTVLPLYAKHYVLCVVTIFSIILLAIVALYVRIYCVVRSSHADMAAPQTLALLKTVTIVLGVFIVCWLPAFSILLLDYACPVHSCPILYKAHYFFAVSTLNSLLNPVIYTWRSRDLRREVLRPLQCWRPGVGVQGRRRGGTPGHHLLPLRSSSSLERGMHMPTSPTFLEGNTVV

[28] = target: Sphingosine 1-phosphate receptor 3 (Homo sapiens, UniProt Q99500); test: Late stage counterscreen assay for S1P4 antagonists: Fluorescence dose response cell-based screening assay for antagonists of the Sphingosine 1-Phosphate Receptor 3 (S1P3). [Related pubchem assays (depositor defined):AID1510, AID1524, AID1692, AID1853, AID2332, AID489009, AID489017]; format: functional
Sequence of Sphingosine 1-phosphate receptor 3 (Q99500 whole entry): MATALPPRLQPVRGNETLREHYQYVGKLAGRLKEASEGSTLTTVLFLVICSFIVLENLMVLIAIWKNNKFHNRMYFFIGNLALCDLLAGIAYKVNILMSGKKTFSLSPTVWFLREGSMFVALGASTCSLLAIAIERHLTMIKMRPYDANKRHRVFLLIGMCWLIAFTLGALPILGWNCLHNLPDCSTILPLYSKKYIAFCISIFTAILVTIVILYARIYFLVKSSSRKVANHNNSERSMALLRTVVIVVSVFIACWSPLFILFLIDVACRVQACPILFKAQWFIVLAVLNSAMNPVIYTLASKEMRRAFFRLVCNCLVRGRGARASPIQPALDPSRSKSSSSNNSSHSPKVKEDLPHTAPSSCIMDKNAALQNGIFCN

[29] = target: Sphingosine 1-phosphate receptor 5 (Homo sapiens, UniProt Q9H228); test: Late stage counterscreen assay for S1P4 antagonists: Fluorescence dose response cell-based screening assay for antagonists of the Sphingosine 1-Phosphate Receptor 5 (S1P5). [Related pubchem assays (depositor defined):AID1510, AID1524, AID1692, AID1853, AID2332, AID489009, AID489017]; format: functional
Sequence of Sphingosine 1-phosphate receptor 5 (Q9H228 whole entry): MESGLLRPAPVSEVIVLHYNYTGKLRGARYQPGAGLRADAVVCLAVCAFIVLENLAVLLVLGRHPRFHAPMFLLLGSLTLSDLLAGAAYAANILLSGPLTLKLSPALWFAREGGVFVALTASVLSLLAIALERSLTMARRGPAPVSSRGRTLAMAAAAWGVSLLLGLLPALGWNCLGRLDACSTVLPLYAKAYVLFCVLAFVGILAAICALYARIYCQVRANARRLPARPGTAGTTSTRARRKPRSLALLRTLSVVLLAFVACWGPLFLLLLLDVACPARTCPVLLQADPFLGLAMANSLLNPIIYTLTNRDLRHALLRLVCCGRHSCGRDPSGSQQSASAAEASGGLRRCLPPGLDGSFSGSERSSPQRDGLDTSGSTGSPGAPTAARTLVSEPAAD

[30] = target: Sphingosine 1-phosphate receptor 1 (Homo sapiens, UniProt P21453); test: Late stage counterscreen assay for S1P4 antagonists: Fluorescence dose response cell-based screening assay for antagonists of the Sphingosine 1-Phosphate Receptor 1 (S1P1). [Related pubchem assays (depositor defined):AID1510, AID1524, AID1692, AID1853, AID2332, AID489009, AID489017]; format: functional
Sequence of Sphingosine 1-phosphate receptor 1 (P21453 whole entry): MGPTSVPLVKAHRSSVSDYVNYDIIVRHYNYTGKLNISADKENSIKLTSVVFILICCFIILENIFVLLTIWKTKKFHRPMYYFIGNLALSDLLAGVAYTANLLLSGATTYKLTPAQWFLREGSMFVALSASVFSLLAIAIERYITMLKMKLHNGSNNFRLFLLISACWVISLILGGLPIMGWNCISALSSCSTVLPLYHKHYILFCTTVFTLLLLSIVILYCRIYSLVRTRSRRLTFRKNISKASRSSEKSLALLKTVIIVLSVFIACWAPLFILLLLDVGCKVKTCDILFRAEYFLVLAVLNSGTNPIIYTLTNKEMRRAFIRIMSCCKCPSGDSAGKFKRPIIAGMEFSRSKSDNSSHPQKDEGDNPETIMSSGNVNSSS

[31] = Luminescence Cell-Based/Microorganism Confirmation at Dose of Inhibitors of Trypanosoma cruzi Infection. [Related pubchem assays: 1885, 1968 ]; format: functional
[32] = inhibitors of Trypanosoma cruzi host-cell infection, confirmation, beta-gal luminescence, NIH3T3 host cells (AID 2630); format: functional, cell-based; conditions: Mus musculus
[33] = Luminescence Cell-Based Secondary HTS screen to identify cytotoxic compounds of NIH3T3 cells. [Related pubchem assays: 1885, 1968 ]; format: functional

Sequence of G-protein coupled receptor 55 (Q9Y2T6 whole entry): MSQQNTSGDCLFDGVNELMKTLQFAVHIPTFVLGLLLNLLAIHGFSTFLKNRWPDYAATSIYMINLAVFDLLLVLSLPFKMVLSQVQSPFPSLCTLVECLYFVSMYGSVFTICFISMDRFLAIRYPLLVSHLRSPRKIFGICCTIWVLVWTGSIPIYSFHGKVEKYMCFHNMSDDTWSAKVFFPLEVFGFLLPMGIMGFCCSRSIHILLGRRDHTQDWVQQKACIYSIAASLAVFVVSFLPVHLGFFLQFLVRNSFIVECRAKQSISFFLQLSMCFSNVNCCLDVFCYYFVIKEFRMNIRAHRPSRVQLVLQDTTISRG

IC50 [1]: > 32 µM (inactive)
SMILES: O=C(Nc1ccc2nc(SCc3ccc(Cl)c(Cl)c3)sc2c1)c1ccccc1Br

SMILES: C/C(Cl)=C\Cn1c(NCCc2ccccc2)nc2c1c(=O)n(C)c(=O)n2C
IC50 [2]: > 20 µM (inactive) | IC50 [3]: > 25 µM (inactive) | AC50 [4]: 0.493 µM (active) | AC50 [5]: 59.4 µM (active) | IC50 [6]: > 25 µM (inactive) | IC50 [7]: 2.61 µM (active) | IC50 [8]: > 25 µM (inactive) | IC50 [9]: 4.13 µM (active) | AC50 [10]: 0.283 µM (active) | IC50 [11]: > 20 µM (inactive) | IC50 [12]: 3.05 µM (active) | IC50 [13]: 2.5 µM (active) | IC50 [14]: 5.66 µM (active)

IC50 [15]: > 100 µM (inactive) | IC50 [16]: 1.38 µM (active)
SMILES: CCN(CC)C(=O)c1cn(CCOc2ccccc2)c2ccccc12

SMILES: COc1ccc(CC2(CO)CCN(CC3=Cc4cc(Cl)ccc4OC3)CC2)cc1
IC50 [17]: 3.77 µM (active) | EC50 [18]: 5.44 µM (active) | AC50 [4]: 7.74 µM (active) | AC50 [5]: 7.73 µM (active) | IC50 [19]: 4.31 µM (active) | AC50 [20]: 3.28 µM (active) | EC50 [21]: > 60 µM (inconclusive) | EC50 [22]: 1.68 µM (active) | IC50 [23]: 1.28 µM (active) | AC50 [10]: 1.33 µM (active) | IC50 [24]: 8.64 µM (active) | IC50 [25]: 1.79 µM (active)

IC50 [26]: 28.7 µM (active)
SMILES: O=C1c2oc3ccccc3c(=O)c2C(c2ccc(O)cc2)N1c1nccs1 (stereo unspecified)

IC50 [27]: > 25 µM (inactive) | IC50 [28]: > 25 µM (inactive) | IC50 [29]: > 25 µM (inactive) | IC50 [30]: > 25 µM (inactive)
SMILES: Cc1ccc2ccccc2c1NC(=O)c1ccc(-c2cc(Cl)ccc2Cl)o1

SMILES: COc1ccccc1/C=C/C(=O)OCCCN(C)C
EC50 [31]: 2.52 µM (active) | EC50 [32]: 2.52 µM (active) | EC50 [33]: > 195 µM (not active)
